Consider three compounds from publication PMC6593224, “Validation and Invalidation of Chemical Probes for the Human N-myristoyltransferases” (Cell Chemical Biology, 2019).

Where two headings read alike, the source gives them in different places.

In data set [1] the target is T1, recombinant human N-myristoyltransferase 1 (rNMT1) (Homo sapiens, UniProt P30419).
T1 construct: Full-length HsNMT1 enzyme was produced as previously described; made in house
T1 sequence (P30419 1-496): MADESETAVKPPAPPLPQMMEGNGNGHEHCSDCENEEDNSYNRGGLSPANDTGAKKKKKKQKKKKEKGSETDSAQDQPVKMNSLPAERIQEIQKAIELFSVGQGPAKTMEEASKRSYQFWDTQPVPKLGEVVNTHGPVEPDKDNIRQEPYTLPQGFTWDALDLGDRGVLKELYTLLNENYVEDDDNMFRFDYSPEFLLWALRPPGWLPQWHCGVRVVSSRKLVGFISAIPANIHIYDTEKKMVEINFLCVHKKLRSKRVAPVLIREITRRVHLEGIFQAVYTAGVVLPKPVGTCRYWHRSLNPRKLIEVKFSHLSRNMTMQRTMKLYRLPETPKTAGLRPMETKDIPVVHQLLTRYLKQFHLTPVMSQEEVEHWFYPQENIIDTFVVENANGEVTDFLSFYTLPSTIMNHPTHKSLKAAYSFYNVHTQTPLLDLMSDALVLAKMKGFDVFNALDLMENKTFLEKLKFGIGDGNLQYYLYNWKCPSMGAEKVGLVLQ
The data set can be described thus: Enzymatic HsNMT1 assay (CPM detection of CoA thiol by-product). It is filed as biochemical. The following applies: for rNMT1 activity: below 300 μM. On the procedure:
After background correction, IC50 values were determined by fitting the four-parametric variable slope function (GraphPad Prism 5.0), with the stated IC50 values being the mean of two independent assays performed in triplicate.

Data set [2] in a line: Precipitation in rNMT1 buffer, absorbance at 750 nm. It is filed as physicochemical. The settings on record: 15 min at room temperature. Here is the method:
Absorbance at 750 nm was determined after 15 min at room temperature.
and 72 h. Mean of quadruplicate measurements, ± SEM.
(E) Nuclei counts of HeLa cells after exposure to 1-5 for 24, 48 and 72 h. Mean of quadruplicate

In data set [3] the test system is MDA-MB-231 cells. The experiment in a line: Nuclei counting as a measure for proliferation. The format is cell-based, human. Here is the method: After 24, 48 or 72 h of exposure, cell viability was evaluated by determination of metabolic activity and counting of cellular nuclei. Metabolic activity was assessed by addition of Cell Titer Blue (Promega), incubation at 37°C and the appropriate percentage of CO2 for 3 h, followed by measuring the absorbance at 490 nm using a PHERAstar (BMG LabTech, Germany). For nuclei counting, cells were fixed with 4% (w/v) paraformaldehyde at room temperature (RT) for 20 min, permeabilised with 0.2% (v/v) Triton X-100 in PBS at RT for 20 min, DNA stained with 1 μg/mL DAPI (Life Technologies, D1306) at RT for 1 h, followed by three washes with PBS. Whole well images for the total number of cells were acquired with an Acumen Cellista (TTP Labtech), using the 405 nm excitation / FL1 (420-500 nm) emission channel. The cell viability was normalised to the negative control (DMSO) and positive control (Staurosporin and puromycin), followed by fitting the four-parametric variable slope function (GraphPad Prism 5.0) to data of quadruplicate experiments.

Data set [4] concerns N-myristoylated proteome (NMT substrates). The data set can be described thus: Quantitative chemical proteomics of YnMyr-tagged proteins. It is filed as cell-based, human. The settings on record: MDA-MB-231 (n = 75). The text has this:
HeLa and MDA-MB-231 cells were exposed (in triplicate) to 1–5, in a setup identical to that used for in-gel analyses (Figure 2A), with the exception that YnMyr-tagged proteins were ligated to AzRB. Labeled proteins were enriched on NeutrAvidin-agarose and digested on-resin with trypsin; peptides were labeled with tandem mass tag, and analyzed and quantified by nano-liquid chromatography-tandem mass spectrometry on a Thermo Q-Exactive instrument.
Cysteine carbamidomethylation was used as a fixed modification and methionine oxidation and N-terminal acetylation as variable modifications. ‘Trypsin/P’ was chosen as digestion mode enzyme, and up to two missed cleavages were allowed. The ‘match between run’ option was selected, along with ‘unique and razor peptides’ for protein quantification. TMT was set per sample group. […] The false discovery rate was set to 0.01 for peptides and a minimum of 2 unique peptides per protein were required. The mass spectrometry proteomics data have been deposited to the ProteomeXchange Consortium via the PRIDE partner repository with the dataset identifier PXD012722.

Data set [5] relates to human NMTs. The following applies: read-out: In Vitro IC50, Reported, cited from earlier work.
The target in data set [6] is both NMTs. The arrangement: method as in Mousnier et al., 2018. The settings on record: ref Mousnier et al., 2018; cited from earlier work.
The test system of data set [7] is N-myristoylation in living cells. The settings on record: cited from earlier work.
Data set [8] relates to NMT within living cells (N-myristoylation). The experiment in a line: YnMyr metabolic tagging, in-gel fluorescence. The settings on record: for N-myristoylation in cells (summary of assays): 1 μM IMP-366, 100 nM IMP-1088, 100 μM 2-hydroxymyristic acid, 30 μM D-NMAPPD, 10 μM Tris-DBA palladium, 18 h; for quantification of YnMyr tagging of ten bands: MDA-MB-231 and HeLa, 100 μM 3, 30 μM 4, 10 μM 5.

In data set [9] the test system is NMT (in-cell target engagement, ARL1). The experiment in a line: Sortase A assay (peptide addition to ARL1), human cell lines.
Procedure: (§1) The homogenate was further disrupted by shearing it three times through a 30G needle. […] Hereafter the reaction was quenched with 5 mM EDTA and stored at −20°C until further analysis.
The nature of data set [10]: Precipitation in growth media. The settings on record: 3 at 1 mM, directly or in a mixture with BSA; data not shown.
Data set [11] concerns NMT (in-cell target engagement, ARL1). The data set can be described thus: Sortase A assay (peptide addition to ARL1), murine cells. The settings on record: MEF and NIH3T3 cells; 100, 10 and 1 μM 4. The format is cell-based.
Procedure: as §1
In data set [12] the test system is de novo protein synthesis. The data set can be described thus: L-AHA tagging of de novo protein synthesis. It is filed as cell-based, human. The following applies: MDA-MB-231 and HeLa; 18 h; 30 μM 4, 10 μM 5. The source says:
Cells were subsequently harvested as described before (see Myristic Acid Analogue (YnMyr) Tagging Experiments).

The test system of data set [13] is MDA-MB-231 and HeLa cells. The data set can be described thus: Bright-field microscopy. It is filed as cell-based, human. The settings on record: both cell lines; 18 h; 30 μM 4, 10 μM 5.
Data set [14] relates to human NMT1. The following applies: ref Kim et al., 2017; read-out: biochemical human NMT1 IC50; cited from earlier work.
Data set [15] relates to lysosomal acid ceramidase. Details: method as in Raisova et al., 2002. The settings on record: various cancer cell lines, >5 μM 4; ref Raisova et al., 2002; cited from earlier work.
Data set [16] relates to HeLa cells. The experiment in a line: Apoptosis, active caspase-3 staining by FACS. The settings on record: 18 h, 30 μM 4, 10 μM 5. In general terms: Flow cytometry measures light scatter and fluorescence of single cells or particles in a stream.
In data set [17] the test system is HeLa cells. The data set can be described thus: Cell-cycle distribution by FACS (DNA content, EdU). The settings on record: 18 h, 30 μM 4, 10 μM 5.
The mark [18] stands for this setting: range of concentrations, 24, 48, 72 h.
Where [19] appears, read: recombinant human NMT1, mean of two independent assays in triplicate, values for 3 and 4 extrapolated, read-out: In Vitro IC50, This Article.

In general, IC50 refers to the concentration needed to halve the response being measured. A word on the Kd: it is the concentration at which binding is half-saturated. Take `Cc1nn(C)c(C)c1CCOc1c(-c2ccc3c(c2)c(CN(C)C)nn3C)ccc(F)c1F` [Compound 2, IMP-1088]: the IC50 was 0.00024 µM in data set [1] and below 0.001 µM in data set [5] (ref Mousnier et al., 2018). For the same compound, in [2], the “concentration at which the compound precipitated (absorbance at 750 nm)” value (“concentration … (absorbance at 750 nm)” for short) is reported as “above 300 μM”. Also, the “effect on proliferation (nuclei counts)” value in data set [3] (setting [18]) is “only after 48 and 72 h”. Moreover, the “hierarchical one-minus Pearson correlation clustering of enrichment of N-myristoylated proteins” value in [4] is reported as “very similar to that of control cells not treated with YnMyr”. In addition, in [6], the Kd is around 0.0002 µM. Further, in [7] (low nanomolar concentrations, ref Mousnier et al., 2018), the N-myristoylation in cells result is given as “completely inhibited”. In addition, the “N-myristoylation in cells (summary of assays)” value in [8] is “complete inhibition”; in data set [8] (listed as IMP-1088), “complete and specific inhibition”. Also, the “concentration for complete inhibition of in-cell N-myristoylation above the IC50 toward recombinant NMT1” value in data set [8] (approximately) is given as 30- to 100 fold. In addition, the “NMT engagement (sortase A)” value in data set [9] (all cell lines tested (panel of nine, incl. murine MEF and NIH3T3)) is listed as “engaged NMT”.

With `CCCCCCCCCCCCC(O)C(=O)O` (centres unmarked) [Compound 3, 2-hydroxymyristic acid], in [1] (100 μM 3, while soluble), the “inhibition of recombinant NMT1” value was “did not inhibit”. Further, the rNMT1 activity entry in data set [1] is on record as “not reduced”. For the same compound, the IC50 in [1] (setting [19]) was above 300 µM; in data set [5] (ref Paige et al., 1990), 100 µM. The “concentration … (absorbance at 750 nm)” value in [2] came to 300 µM. Moreover, the “effect on proliferation (nuclei counts)” value in data set [3] (setting [18]) is “unaffected”. The “hierarchical one-minus Pearson correlation clustering of enrichment of N-myristoylated proteins” value in data set [4] was “do not affect NMT activity”. In addition, in data set [7] (100 μM to 1 mM, ref Vaandrager et al., 1996, Tan et al., 2016), the “metabolic labeling of cells with [3H]myristate” value is “reduce metabolic labeling”. The “effect of addition to medium” value in data set [10] was “precipitation in the medium and cell death”. For the same compound, the “N-myristoylation in cells (summary of assays)” value is “did not inhibit” in data set [8], “inactive” in [8] (listed as 2-Hydroxymyristate) and “unaffected” in data set [8] (listed as 2-hydroxymyristic acid). Further, the “quantification of YnMyr tagging of ten bands” value in data set [8] is reported as “at most a minor reduction”. The “NMT inhibition (sortase A)” value in [9] (Jurkat, HEK293 and NCI-H23 cells, 100, 10 and 1 μM 3) is “did not inhibit NMT”.

Regarding `CCCCCCCCCCCCCC(=O)N[C@H](CO)[C@H](O)c1ccc([N+](=O)[O-])cc1` [Compound 4, D-NMAPPD], the rNMT1 activity result in [1] is “not reduced”. In addition, the IC50 in data set [1] (setting [19]) was above 300 µM; in data set [14], 78 µM; in [7] (ref Kim et al., 2017, read-out: IC50, capacity to reduce N-myristoylation in living cells), around 15 µM. Also, the “concentration … (absorbance at 750 nm)” value in data set [2] was 300 µM. Also, the “effect on proliferation (nuclei counts)” value in data set [3] (30 μM 4, 24, 48, 72 h) is on record as “hindered proliferation equally at all time points”. The “NMT inhibition (sortase A)” value in data set [11] is listed as “no effect”; in data set [9] (PC-3 cells, 100, 10 and 1 μM 4), “no effect”. Besides, the “hierarchical one-minus Pearson correlation clustering of enrichment of N-myristoylated proteins” value in data set [4] is “do not affect NMT activity”. The “decrease in L-AHA labeling” value in [12] is reported as 40%–80%. For the same compound, the cell morphology result in [13] was “more rounded apoptotic cells”. Further, in data set [15], the “increase of ceramide concentrations” value is “up to 12 fold”. Besides, the “N-myristoylation in cells (summary of assays)” value in data set [8] is given as “unaffected”. In addition, the “quantification of YnMyr tagging of ten bands” value in data set [8] is “at most a minor reduction”. In addition, the “induction of apoptosis compared with MDA-MB-231” value in data set [16] was “less induction of apoptosis”. For the same compound, in data set [17], the “depletion of S phase compared with MDA-MB-231” value is recorded as “correspondingly lower depletion of S phase”.
